Like-named read-outs stand apart in the source and are kept apart here. Some results are limits rather than exact numbers.

Our source for the Ki and EC50 values is patent US8067447B2, “Modulators of glucocorticoid receptor, AP-1, and/or NF-κB activity and use thereof” (Bristol-Myers Squibb Company, priority 2006, dated 2011).

Experiment [1] concerns the target T1, human glucocorticoid receptor (Homo sapiens, UniProt P04150).
T1 construct: purified human recombinant full-length glucocorticoid receptor (2 nM); purchased Invitrogen Part #2893
T1 sequence (P04150 1-777): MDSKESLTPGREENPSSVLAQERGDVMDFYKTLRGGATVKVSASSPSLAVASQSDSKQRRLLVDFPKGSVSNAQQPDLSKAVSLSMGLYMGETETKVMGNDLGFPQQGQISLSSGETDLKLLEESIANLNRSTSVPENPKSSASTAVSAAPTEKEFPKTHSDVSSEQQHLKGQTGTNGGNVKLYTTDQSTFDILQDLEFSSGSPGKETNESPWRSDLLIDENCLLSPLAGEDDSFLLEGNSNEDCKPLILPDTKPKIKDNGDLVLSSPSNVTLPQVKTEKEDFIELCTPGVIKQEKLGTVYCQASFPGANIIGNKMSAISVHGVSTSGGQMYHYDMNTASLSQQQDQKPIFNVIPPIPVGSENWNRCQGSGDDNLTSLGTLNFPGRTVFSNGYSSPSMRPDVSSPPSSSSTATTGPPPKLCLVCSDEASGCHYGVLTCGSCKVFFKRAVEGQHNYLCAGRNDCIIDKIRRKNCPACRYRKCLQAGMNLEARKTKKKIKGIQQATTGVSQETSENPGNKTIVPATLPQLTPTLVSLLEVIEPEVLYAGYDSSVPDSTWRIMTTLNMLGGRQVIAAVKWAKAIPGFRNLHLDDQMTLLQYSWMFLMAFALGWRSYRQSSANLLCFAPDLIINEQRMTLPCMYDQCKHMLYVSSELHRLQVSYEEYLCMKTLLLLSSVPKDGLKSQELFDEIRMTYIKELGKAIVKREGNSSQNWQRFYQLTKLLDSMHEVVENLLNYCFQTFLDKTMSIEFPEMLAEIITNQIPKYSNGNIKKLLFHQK
As to the kind of experiment: Glucocorticoid Receptor Binding Assay (I), fluorescence polarization competitor kit (Fluormone GS Red). The conditions noted are these: purified human recombinant full-length GR 2 nM, 1 nM Fluormone GS Red, FP; read-out: GR (Ki, nM) (GR Binding Assay (I)). Here is the method: Briefly, purified human recombinant full-length glucocorticoid receptor (2 nM) was mixed with fluorescently labeled glucocorticoid (1 nM Fluormone GS Red) in the presence or absence of test compound. After two hour incubation at room temperature in the dark, the fluorescence polarization (FP) of the samples was measured. […] Test compounds were analyzed in the concentration range from 8.5E-05 μM to 5 μM.
A general note: Fluorescence polarisation rises when a labelled molecule tumbles more slowly, as on binding a larger partner.

In experiment [2] the test system is AP-1 induced transcriptional activity. Description: Cellular Transrepressional Assay (AP-1 luciferase reporter in A549 cells, PMA-activated). The experiment is classed as cell-based. The conditions noted are these: A549 cells with 7x AP-1 luciferase reporter, 10 ng/ml PMA, read-out: AP-1 (EC50, nM) (Cellular Transrepression Assay). As for the experimental part: To measure the ability of test molecules to inhibit AP-1 induced transcriptional activity an A549 cell was utilized which was stably transfected with a plasmid containing 7× AP-1 DNA binding sites (pAP-1-Luc plasmid, Stratagene Co. La Jolla, Calif.) followed by the gene for luciferase. Cells were activated with 10 ng/ml of […] (PMA) plus or minus test molecules for 7 hours. After 7 hours a luciferase reagent was added to measure luciferase enzymatic activity in the cell. After a 10 minute incubation of luciferase reagent with cells, luminescence was measured in a TopCount luminescence counter. Repression of AP-1 activity was calculated as the percentage decrease in the signal induced by PMA alone. Test molecules were analyzed in the concentration range from 0.1 nM to 40 μM. EC50s were determined by using standard curve fitting methods such as Excel fit (Microsoft Co.).
On the technique in general: Reporter assays use an easily measured gene product as a stand-in for the process of interest.

Broadly, the Ki is a dissociation constant, usually derived from enzyme kinetics or from competition with a known ligand. A word on the EC50: it is the concentration that produces a half-maximal response. Consider `CC(C)(C(=O)Nc1nccs1)C(c1ccccc1)c1ccc2[nH]c(-c3ccccn3)cc2c1` (single isomer, unassigned) [111-enant A, 2,2-Dimethyl-3-phenyl-3-(2-(pyridin-2-yl)-1H-indol-5-yl)-N-(thiazol-2-yl)propanamide], for which, in experiment [1], the Ki was 73 nM. The EC50 in experiment [2] (Homo sapiens, A549, 7 h) was found to be 1090 nM. On to `CC(C)(C(=O)Nc1nccs1)C(c1ccccc1)c1ccc2[nH]c(-c3ccccn3)cc2c1` (single isomer, unassigned) [111-enant B, 2,2-Dimethyl-3-phenyl-3-(2-(pyridin-2-yl)-1H-indol-5-yl)-N-(thiazol-2-yl)propanamide], for which the Ki in experiment [1] was 25 nM. The EC50 in experiment [2] (7 hours) worked out at 777 nM. For `O=C(CC(c1ccccc1)c1ccc2c(cnn2-c2ccc(F)cc2)c1)Nc1nncs1` (single isomer, unassigned) [136-enant A, 3-(1-(4-Fluorophenyl)-1H-indazol-5-yl)-3-phenyl-N-(1,3,4-thiadiazol-2-yl)propanamide] the same measures were 23 nM and over 10000 nM. For `O=C(CC(c1ccccc1)c1ccc2c(cnn2-c2ccc(F)cc2)c1)Nc1nncs1` (single isomer, unassigned) [136-enant B, 3-(1-(4-Fluorophenyl)-1H-indazol-5-yl)-3-phenyl-N-(1,3,4-thiadiazol-2-yl)propanamide] the same measures were 6 nM and 13 nM. Regarding `CC(C(=O)Nc1nncs1)C(c1ccccc1)c1ccc2c(cnn2-c2ccc(F)cc2)c1` (single isomer, unassigned) [Example 141-isomerC, 3-(1-(4-Fluorophenyl)-1H-indazol-5-yl)-2-methyl-3-phenyl-N-(1,3,4-thiadiazol-2-yl)propanamide], the EC50 in experiment [2] (7 hours) turned out to be 0.23 nM. On to `CC(C)(C(=O)NC1CCCC1)C(c1ccccc1)c1ccc2c(cnn2-c2ccc(F)cc2)c1` (centres unmarked) [Example 3, N-cyclopentyl-3-(1-(4-fluorophenyl)-1H-indazol-5-yl)-2,2-dimethyl-3-phenylpropanamide], for which the Ki in experiment [1] was 6.9 nM. The EC50 in experiment [2] (Homo sapiens, A549, 7 h) stood at 199 nM.

With `Cn1ccc(NC(=O)C(C)(C)C(c2ccccc2)c2ccc3c(cnn3-c3ccc(F)cc3)c2)n1` (centres unmarked) [Example 4, 3-(1-(4-fluorophenyl)-1H-indazol-5-yl)-2,2-dimethyl-N-(1-methyl-1H-pyrazol-3-yl)-3-phenylpropanamide], the Ki in experiment [1] stood at 7 nM. Also, the EC50 in experiment [2] (Homo sapiens, A549, 7 h) is 12 nM. For the molecule `CC(C)(C(=O)NS(C)(=O)=O)C(c1ccccc1)c1ccc2c(cnn2-c2ccc(F)cc2)c1` (centres unmarked) [Example 5, 3-(1-(4-fluorophenyl)-1H-indazol-5-yl)-2,2-dimethyl-N-(methylsulfonyl)-3-phenylpropanamide], in experiment [1], the Ki worked out at 7 nM. Further, the EC50 in experiment [2] (Homo sapiens, A549, 7 h) amounted to 1330 nM.

With `CC(C)(C(=O)NS(=O)(=O)C(F)(F)F)C(c1ccccc1)c1ccc2c(cnn2-c2ccc(F)cc2)c1` (centres unmarked) [Example 6, 3-(1-(4-fluorophenyl)-1H-indazol-5-yl)-2,2-dimethyl-3-phenyl-N-(trifluoromethylsulfonyl) propanamide], the Ki in experiment [1] came out at 77 nM. In addition, the EC50 in experiment [2] (Homo sapiens, A549, 7 h) is over 10000 nM. Taken in the same sequence, the figures for `CC(C)(C)CNC(=O)C(C)(C)C(c1ccccc1)c1ccc2c(cnn2-c2ccc(F)cc2)c1` (centres unmarked) [Example 7, 3-(1-(4-fluorophenyl)-1H-indazol-5-yl)-2,2-dimethyl-N-neopentyl-3-phenylpropanamide] were 2.9 nM and 904 nM. For `CC(C)(C(=O)NCC(F)(F)F)C(c1ccccc1)c1ccc2c(cnn2-c2ccc(F)cc2)c1` (centres unmarked) [Example 8, 3-(1-(4-fluorophenyl)-1H-indazol-5-yl)-2,2-dimethyl-3-phenyl-N-(2,2,2-trifluoroethyl)prop-anamide] the same measures were 3 nM and 1800 nM. As for `CC(C)(C(=O)NCCC(F)(F)F)C(c1ccccc1)c1ccc2c(cnn2-c2ccc(F)cc2)c1` (centres unmarked) [Example 9, 3-(1-(4-fluorophenyl)-1H-indazol-5-yl)-2,2-dimethyl-3-phenyl-N-(3,3,3-trifluoropropyl)-propanamide], the Ki in experiment [1] came out at 3.7 nM. In addition, in experiment [2] (Homo sapiens, A549, 7 h), the EC50 stood at 3060 nM. Taken in the same sequence, the figures for `CCOC(=O)c1nnc(NC(=O)C(C)(C)C(c2ccccc2)c2ccc3c(cnn3-c3ccc(F)cc3)c2)s1` (centres unmarked) [Example 10, ethyl 5-(3-(1-(4-fluorophenyl)-1H-indazol-5-yl)-2,2-dimethyl-3-phenylprop-anamido)-1,3,4-thiadiazole-2-carboxylate] were 227 nM and 3520 nM.

Turning to `CC(C)(C(=O)Nc1ccsc1)C(c1ccccc1)c1ccc2c(cnn2-c2ccc(F)cc2)c1` (centres unmarked) [Example 11, 3-(1-(4-fluorophenyl)-1H-indazol-5-yl)-2,2-dimethyl-3-phenyl-N-(thiophen-3-yl)propanamide], the Ki in experiment [1] was 11 nM. Further, in experiment [2] (Homo sapiens, A549, 7 h), the EC50 is 73 nM.

In the case of `CC(C)(C(=O)Nc1nc[nH]n1)C(c1ccccc1)c1ccc2c(cnn2-c2ccc(F)cc2)c1` (centres unmarked) [Example 13, 3-(1-(4-fluorophenyl)-1H-indazol-5-yl)-2,2-dimethyl-3-phenyl-N-(1H-1,2,4-triazol-3-yl)propanamide], in experiment [1], the inhibition constant (Ki) was found to be 11 nM. The EC50 in experiment [2] (Homo sapiens, A549, 7 h) came to 17 nM. For the molecule `CC(C)(C(=O)Nc1nnn[nH]1)C(c1ccccc1)c1ccc2c(cnn2-c2ccc(F)cc2)c1` (centres unmarked) [Example 14, 3-(1-(4-fluorophenyl)-1H-indazol-5-yl)-2,2-dimethyl-3-phenyl-N-(1H-tetrazol-5-yl)propanamide], the Ki in experiment [1] came to 17 nM. In addition, the EC50 in experiment [2] (Homo sapiens, A549, 7 h) is over 10000 nM. For `CC(C)(C(=O)Nc1cc(O)[nH]n1)C(c1ccccc1)c1ccc2c(cnn2-c2ccc(F)cc2)c1` (centres unmarked) [Example 15, 3-(1-(4-fluorophenyl)-1H-indazol-5-yl)-N-(5-hydroxy-1H-pyrazol-3-yl)-2,2-dimethyl-3-phenylpropanamide], the Ki in experiment [1] stood at 318 nM. In addition, in experiment [2] (Homo sapiens, A549, 7 h), the EC50 was over 10000 nM. On to `CC(C)(C(=O)Nc1n[nH]cc1C#N)C(c1ccccc1)c1ccc2c(cnn2-c2ccc(F)cc2)c1` (centres unmarked) [Example 16, N-(4-cyano-1H-pyrazol-3-yl)-3-(1-(4-fluorophenyl)-1H-indazol-5-yl)-2,2-dimethyl-3-phenylpropanamide], for which, in experiment [1], the Ki was found to be 163 nM. The EC50 in experiment [2] (Homo sapiens, A549, 7 h) is over 10000 nM.

With `Cc1cnc(NC(=O)C(C)(C)C(c2ccccc2)c2ccc3c(cnn3-c3ccc(F)cc3)c2)s1` (centres unmarked) [Example 17, 3-(1-(4-fluorophenyl)-1H-indazol-5-yl)-2,2-dimethyl-N-(5-methylthiazol-2-yl)-3-phenylpropanamide], the Ki in experiment [1] stood at 11 nM. The EC50 in experiment [2] (Homo sapiens, A549, 7 h) was found to be 49 nM.

As to `Cc1nnc(NC(=O)C(C)(C)C(c2ccccc2)c2ccc3c(cnn3-c3ccc(F)cc3)c2)s1` (centres unmarked) [Example 18, 3-(1-(4-fluorophenyl)-1H-indazol-5-yl)-2,2-dimethyl-N-(5-methyl-1,3,4-thiadiazol-2-yl)-3-phenylpropanamide], the Ki in experiment [1] is 21 nM. Also, in experiment [2] (Homo sapiens, A549, 7 h), the EC50 amounted to 141 nM. For `CC(C)(C(=O)Nc1sccc1C#N)C(c1ccccc1)c1ccc2c(cnn2-c2ccc(F)cc2)c1` (centres unmarked) [Example 19, N-(3-cyanothiophen-2-yl)-3-(1-(4-fluorophenyl)-1H-indazol-5-yl)-2,2-dimethyl-3-phenylpropanamide] the same measures were 47 nM and over 10000 nM. Taken in the same sequence, the figures for `CCc1nnc(NC(=O)C(C)(C)C(c2ccccc2)c2ccc3c(cnn3-c3ccc(F)cc3)c2)s1` (centres unmarked) [Example 20, N-(5-ethyl-1,3,4-thiadiazol-2-yl)-3-(1-(4-fluorophenyl)-1H-indazol-5-yl)-2,2-dimethyl-3-phenylpropanamide] were 10 nM and over 10000 nM. For `O=C(Nc1nccs1)C1CC1(c1ccccc1)c1ccc2c(cnn2-c2ccc(F)cc2)c1` (stereo not drawn) [Example 99, Cis-2-(1-(4-fluorophenyl)-1H-indazol-5-yl)-2-phenyl-N-(thiazol-2-yl)cyclopropanecarboxamide], the EC50 in experiment [2] (7 hours) is over 10000 nM.
